The values that follow come from ChEMBL document CHEMBL4818987, “Recent advances of podophyllotoxin/epipodophyllotoxin hybrids in anticancer activity, mode of action, and structure-activity relationship: An update (2010-2020)” (Eur J Med Chem, 2020).

Holding throughout (format): functional, cell-based
The subject of one assay is NCI-H1993. Briefly: Antiproliferative activity against human NCI-H1993 cells incubated for 48 to 72 hrs by MTT assay.
Another assay has as its system HepG2. Briefly: Antiproliferative activity against human HepG2 cells incubated for 48 to 72 hrs by MTT assay. On the technique in general: Tetrazolium dyes change colour on reduction, which living cells bring about.
A further assay relates to B16. Briefly: Antiproliferative activity against […] cells incubated for 48 to 72 hrs by MTT assay. The conditions noted are these: Mus musculus.
For another assay, the system named is MKN-45. The assay can be described thus: Antiproliferative activity against human MKN-45 cells incubated for 48 to 72 hrs by MTT assay.
A further assay concerns MCF7. Briefly: Antiproliferative activity against human MCF7 cells incubated for 48 hrs by MTT assay. The conditions noted are these: MCF7, 48 h.
The subject of the next assay is A549. The assay can be described thus: Antiproliferative activity against human A549 cells incubated for 48 hrs by MTT assay. The conditions noted are these: A549, 48 h.
A further assay deals with HL-60. Briefly: Antiproliferative activity against human HL-60 cells incubated for 48 hrs by MTT assay. The conditions noted are these: HL-60, 48 h.
The next assay deals with SW480. Briefly: Antiproliferative activity against human SW480 cells incubated for 48 hrs by MTT assay. The conditions noted are these: SW480, 48 h.
The subject of another assay is SMMC-7721. Briefly: Antiproliferative activity against human SMMC-7721 cells incubated for 48 hrs by MTT assay. The conditions noted are these: SMMC-7721, 48 h.
The subject of assay [1] is KB. Briefly: Cytotoxicity against human KB cells incubated for 72 hrs by SRB method. In general terms: Sulforhodamine B stains cellular protein and so reports cell mass.
The subject of assay [2] is KB. The assay can be described thus: Cytotoxicity against human Vincristine-resistant KB cells incubated for 72 hrs by SRB method.

Structures are written as SMILES. Bounds are passed on as bounds.

Consider `COc1cc(C(=O)/C=C/c2ccncc2)ccc1OCc1cn([C@H]2c3cc4c(cc3[C@@H](c3cc(OC)c(OC)c(OC)c3)[C@H]3C(=O)OC[C@@H]32)OCO4)nn1`, for which the IC50 in the assay with NCI-H1993, in the assay with HepG2, with B16 and with MKN-45 was 130 nM in each case.

As for `COc1cc([C@@H]2c3cc4c(cc3[C@H](n3cc(COc5ccc6c(c5)OCO6)nn3)[C@H]3COC(=O)[C@H]23)OCO4)cc(OC)c1OC`, the IC50 with NCI-H1993, in the assay with HepG2, with B16 and in the assay on MKN-45 was 130 nM throughout.

`COc1cc(C(=O)/C=C/c2ccc(N(C)C)cc2)ccc1OCc1cn([C@H]2c3cc4c(cc3[C@@H](c3cc(OC)c(OC)c(OC)c3)[C@H]3C(=O)OC[C@@H]32)OCO4)nn1`: the IC50 in the assay on NCI-H1993, in the assay with HepG2, in the assay on B16 and with MKN-45 was 130 nM throughout.

For the compound `COc1cc(C(=O)/C=C/c2ccc(C(F)(F)F)cc2)ccc1OCc1cn([C@H]2c3cc4c(cc3[C@@H](c3cc(OC)c(OC)c(OC)c3)[C@H]3C(=O)OC[C@@H]32)OCO4)nn1`, the half-maximal inhibitory concentration (IC50) with NCI-H1993, in the assay with HepG2, in the assay with B16 and with MKN-45 was 130 nM each time.

With `COc1cc([C@@H]2c3cc4c(cc3[C@H](n3cc(COc5ccc(-c6ccccc6)cc5)nn3)[C@H]3COC(=O)[C@H]23)OCO4)cc(OC)c1OC`, the IC50 with NCI-H1993, in the assay on HepG2, in the assay with B16 and with MKN-45 was 150 nM in each case.

Regarding `COc1ccccc1/C=C/C(=O)c1ccc(OCc2cn([C@H]3c4cc5c(cc4[C@@H](c4cc(OC)c(OC)c(OC)c4)[C@H]4C(=O)OC[C@@H]43)OCO5)nn2)c(OC)c1`, the IC50 in the assay with NCI-H1993, in the assay on HepG2, in the assay with B16 and in the assay with MKN-45 was 130 nM in each case.

Turning to `COc1cc([C@@H]2c3cc4c(cc3[C@H](n3cc(COc5ccc(C)c([N+](=O)[O-])c5)nn3)[C@H]3COC(=O)[C@H]23)OCO4)cc(OC)c1OC`, the IC50 in the assay on NCI-H1993, in the assay on HepG2, with B16 and in the assay with MKN-45 was 130 nM each time.

In the case of `COc1cc([C@@H]2c3cc4c(cc3[C@H](n3cc(COc5cccc([N+](=O)[O-])c5)nn3)[C@H]3COC(=O)[C@H]23)OCO4)cc(OC)c1OC`, the IC50 in the assay on NCI-H1993, in the assay with HepG2, in the assay on B16 and in the assay with MKN-45 was 130 nM throughout.

In the case of `COc1cc(C(C)=O)ccc1OCc1cn([C@H]2c3cc4c(cc3[C@@H](c3cc(OC)c(OC)c(OC)c3)[C@H]3C(=O)OC[C@@H]32)OCO4)nn1`, the IC50 in the assay with NCI-H1993, in the assay on HepG2, in the assay on B16 and with MKN-45 was 130 nM each time.

With `COc1cc([C@@H]2c3cc4c(cc3[C@H](OC(=O)CCCC[C@@H]3SC[C@@H]5NC(=O)N[C@@H]53)[C@H]3COC(=O)[C@H]23)OCO4)cc(OC)c1OC`, the half-inhibitory concentration (IC50) in the assay on MCF7, with A549, with HL-60, in the assay with SW480 and in the assay on SMMC-7721 was more than 130 nM throughout.

Regarding `COc1cc([C@@H]2c3cc4c(cc3[C@@H](SSSCC(=O)N3CCNCC3)[C@H]3COC(=O)[C@H]23)OCO4)cc(OC)c1O`, the half-maximal inhibitory concentration (IC50) with KB [1] and in the assay with KB [2] was 1120 nM throughout.

On to `COc1ccc(SCc2cn([C@H]3c4cc5c(cc4[C@@H](c4cc(OC)c(OC)c(OC)c4)[C@H]4C(=O)OC[C@@H]43)OCO5)nn2)cc1`, for which the IC50 in the assay on NCI-H1993, in the assay on HepG2, in the assay with B16 and in the assay on MKN-45 was 130 nM throughout.

Consider `COc1ccc(/C=C/C(=O)c2ccc(OCc3cn([C@H]4c5cc6c(cc5[C@@H](c5cc(OC)c(OC)c(OC)c5)[C@H]5C(=O)OC[C@@H]54)OCO6)nn3)c(OC)c2)cc1OC`, for which the IC50 in the assay with NCI-H1993, in the assay on HepG2, with B16 and in the assay with MKN-45 was 130 nM throughout.

Take `COc1ccc(SCc2cn([C@H]3c4cc5c(cc4[C@@H](c4cc(OC)c(OC)c(OC)c4)[C@H]4C(=O)OC[C@@H]43)OCO5)nn2)cc1OC`: the half-maximal inhibitory concentration (IC50) with NCI-H1993, in the assay with HepG2, with B16 and in the assay with MKN-45 was 130 nM throughout.

As for `COc1ccc(OCc2cn([C@H]3c4cc5c(cc4[C@@H](c4cc(OC)c(OC)c(OC)c4)[C@H]4C(=O)OC[C@@H]43)OCO5)nn2)cc1`, the IC50 in the assay with NCI-H1993, in the assay with HepG2, in the assay with B16 and with MKN-45 was 130 nM in each case.

`COc1cc(C(=O)/C=C/c2ccsc2)ccc1OCc1cn([C@H]2c3cc4c(cc3[C@@H](c3cc(OC)c(OC)c(OC)c3)[C@H]3C(=O)OC[C@@H]32)OCO4)nn1`: the IC50 in the assay on NCI-H1993, with HepG2, in the assay with B16 and in the assay with MKN-45 was 130 nM each time.

Regarding `COc1cc(C(=O)/C=C/c2cc(OC)c(OC)c(OC)c2)ccc1OCc1cn([C@H]2c3cc4c(cc3[C@@H](c3cc(OC)c(OC)c(OC)c3)[C@H]3C(=O)OC[C@@H]32)OCO4)nn1`, the half-maximal inhibitory concentration (IC50) in the assay on NCI-H1993, in the assay with HepG2, in the assay on B16 and in the assay on MKN-45 was 130 nM in each case.

For `COc1ccc(OC(C)(C)c2cn([C@H]3c4cc5c(cc4[C@@H](c4cc(OC)c(OC)c(OC)c4)[C@H]4C(=O)OC[C@@H]43)OCO5)nn2)cc1`, the IC50 with NCI-H1993, in the assay with HepG2, in the assay with B16 and in the assay on MKN-45 was 130 nM each time.

For the compound `COc1cc([C@@H]2c3cc4c(cc3[C@H](n3cc(CNC(=O)c5ccc(Cl)cc5)nn3)[C@H]3COC(=O)[C@H]23)OCO4)cc(OC)c1OC`, the half-maximal inhibitory concentration (IC50) in the assay with NCI-H1993, with HepG2, with B16 and in the assay with MKN-45 was 130 nM each time.

Turning to `COc1cc([C@@H]2c3cc4c(cc3[C@H](n3cc(CNC(=O)c5ccccc5Cl)nn3)[C@H]3COC(=O)[C@H]23)OCO4)cc(OC)c1OC`, the 50% inhibitory concentration (IC50) in the assay with NCI-H1993, with HepG2, in the assay on B16 and in the assay on MKN-45 was 130 nM in each case.

For the compound `COc1cc([C@@H]2c3cc4c(cc3[C@H](n3cc(C(C)(C)Oc5ccc([N+](=O)[O-])cc5)nn3)[C@H]3COC(=O)[C@H]23)OCO4)cc(OC)c1OC`, the half-inhibitory concentration (IC50) in the assay with NCI-H1993, in the assay on HepG2, in the assay on B16 and with MKN-45 was 130 nM throughout.

For `COc1cc(OC)c(OC)cc1/C=C/C(=O)c1ccc(OCc2cn([C@H]3c4cc5c(cc4[C@@H](c4cc(OC)c(OC)c(OC)c4)[C@H]4C(=O)OC[C@@H]43)OCO5)nn2)c(OC)c1`, the half-maximal inhibitory concentration (IC50) with NCI-H1993, with HepG2, with B16 and in the assay on MKN-45 was 130 nM throughout.

Turning to `COc1cc(C(=O)/C=C/c2ccc(F)cc2)ccc1OCc1cn([C@H]2c3cc4c(cc3[C@@H](c3cc(OC)c(OC)c(OC)c3)[C@H]3C(=O)OC[C@@H]32)OCO4)nn1`, the half-maximal inhibitory concentration (IC50) with NCI-H1993, in the assay on HepG2, in the assay with B16 and in the assay on MKN-45 was 130 nM each time.

As for `CCC(C)(C)c1ccc(OCc2cn([C@H]3c4cc5c(cc4[C@@H](c4cc(OC)c(OC)c(OC)c4)[C@H]4C(=O)OC[C@@H]43)OCO5)nn2)cc1`, the IC50 with NCI-H1993, with HepG2, with B16 and in the assay with MKN-45 was 130 nM each time.

For the compound `COc1cc(C(=O)/C=C/c2cccs2)ccc1OCc1cn([C@H]2c3cc4c(cc3[C@@H](c3cc(OC)c(OC)c(OC)c3)[C@H]3C(=O)OC[C@@H]32)OCO4)nn1`, the 50% inhibitory concentration (IC50) with NCI-H1993, with HepG2, in the assay on B16 and in the assay on MKN-45 was 130 nM throughout.

Take `COc1cc([C@@H]2c3cc4c(cc3[C@H](n3cc(COc5ccc6ccc(=O)oc6c5)nn3)[C@H]3COC(=O)[C@H]23)OCO4)cc(OC)c1OC`: the IC50 in the assay on NCI-H1993, with HepG2, in the assay on B16 and in the assay on MKN-45 was 130 nM throughout.

For the compound `CCc1ccc(OC(C)(C)c2cn([C@H]3c4cc5c(cc4[C@@H](c4cc(OC)c(OC)c(OC)c4)[C@H]4C(=O)OC[C@@H]43)OCO5)nn2)cc1`, the IC50 in the assay with NCI-H1993, in the assay on HepG2, in the assay on B16 and in the assay on MKN-45 was 150 nM in each case.

As to `CCc1ccc(OCc2cn([C@H]3c4cc5c(cc4[C@@H](c4cc(OC)c(OC)c(OC)c4)[C@H]4C(=O)OC[C@@H]43)OCO5)nn2)cc1`, the IC50 in the assay on NCI-H1993, in the assay with HepG2, in the assay with B16 and with MKN-45 was 130 nM each time.

With `COc1cc([C@@H]2c3cc4c(cc3[C@H](n3cc(COc5ccc([N+](=O)[O-])cc5)nn3)[C@H]3COC(=O)[C@H]23)OCO4)cc(OC)c1OC`, the IC50 in the assay on NCI-H1993, in the assay with HepG2, with B16 and in the assay with MKN-45 was 130 nM throughout.

Turning to `COc1cc([C@@H]2c3cc4c(cc3[C@@H](SS[C@@H]3O[C@H](CO)[C@H](O)[C@H](O)[C@H]3O)[C@H]3COC(=O)[C@H]23)OCO4)cc(OC)c1O`, the IC50 in the assay on KB [1] was 1120 nM; in the assay with KB [2], 9960 nM.

What is called IC50 is the concentration at which inhibition is half-maximal. Higher therefore signals weaker potency in that assay.
